Laboratory results as given in article PMC11601558, “SLC6A19 inhibition facilitates urinary neutral amino acid excretion and lowers plasma phenylalanine” (JCI Insight, 2024).
Where “and” joins values, the source holds several entries; their conditions need not be identical. Equal values may be shown once.

How the values were obtained:
[1] = test system: T1, SLC7A5 co-expressed with SLC3A2; test: SLC7A5 isoleucine transport assay; assay type: cell-based, human; conditions: for SLC7A5 transport (Fig S2 curve point): technical replicates
T1 construct: V5; expressed in transfected cells; host or cells: Flp-In T-Rex 293 cells (Thermo Fisher), SLC7A5 tetracycline-induced
Protocol: Supplementary Materials and Methods
Flp-In T-Rex 293 cells (Thermo Fisher) were engineered to induciblyexpress either V5-tagged human SLC1A5, SLC6A8 or SLC7A5 co-expressed with myc-DDK-tagged SLC3A2. Cells expressing SLC 1A5 or SLC6A8 were maintained in either DMEM or DMEM/F12 media supplemented with 10% FBS, 100 U/mL penicillin, 100 μg/mL streptomycin, 200 μg/mL hygromycin, and 10 μg/mL blasticidin. For cells expressing SLC7A5/SLC3A2, the media was additionally supplemented with 300 μg/mL geneticin. All cell lines were maintained at 37°C and 5% CO2. For transport experiments, all cell lines were plated in poly-D-lysine-coated 96-well plates at a density of 35,000 cells/well. One day after plating, expression of SLC1A5, SLC6A8 or SLC7A5 was induced by adding tetracycline at a concentration of 1 μg/mL. Cells were induced for 24 h prior to transport assays. […]
SLC7A5 isoleucine transport assay
Following a 24 h induction with tetracycline, cells were washed with sodium -free LCIS (20 mM HEPES, 140 mM choline chloride, 2.5 mM KCl, 1.8 mM CaCl2, 1 mM MgCl2, pH 7.4) before JNT-517 was added in 8-point concentration-response diluted in sodium-free LCIS. JPH203 (Selleckchem) was used as a positive control (34)at a concentration of 1.3 μM and DMSO was used as a negative control. Cells were incubated for 30 min at room temperature before a mixture of unlabeled L-isoleucine (Millipore Sigma) and 10 μCi/mL 4,5 -3H(N)-labeled L-isoleucine (American Radiolabeled Chemicals) was added at a concentration of 50 μM. After a 2 min incubation at room temperature, cells were washed once with sodium -free LCIS and lysed in scintillation fluid (PerkinElmer). The uptake of radioactive substrate was measured on a Microbeta2 microplate counter (PerkinElmer). […]

healthy volunteers = test: Phase 1 safety and tolerability, single ascending dose (SAD) cohorts; assay type: in vivo, human; conditions: for AEs leading to IP discontinuation / Any CTCAE Grade ≥ 3 / Any TEAE / Death / SAE / TEAE Alanine aminotransferase increased / TEAE Aspartate aminotransferase increased / TEAE Blood creatine phosphokinase increased / TEAE Catheter site pain / TEAE Dizziness / TEAE Headache / TEAE Hematuria / TEAE Nausea / TEAE Pyrexia / TEAE Syncope / TEAE Upper respiratory tract infection / TEAE Urinary tract infection: n = 6
Protocol: Parts A and B of this phase 1, randomized, double-blind, placebo-controlled SAD and MAD oral dose study with JNT-517 were conducted in healthy volunteers. The primary objective for these studies was to assess the safety and tolerability of single and multiple doses of JNT-517 in healthy participants. The secondary objective for these studies was to assess the PK of single and multiple oral doses of JNT-517.
Eligible participants included males and females 18 to 55 years of age, medically healthy with no clinically notable medical history, a BMI of 18–40 kg/m^2 and total body weight > 50 kg (110 lbs), and who have been nonsmokers for at least 2 weeks prior to and throughout dosing.
In total, 40 participants who were healthy adult were randomized to receive JNT-517 (10–170 mg) or placebo (3:1 ratio) in 5 cohorts of 8 participants as SADs. […] Within each SAD cohort, a sentinel group of 2 participants were initially randomized to receive JNT-517 or placebo in a 1:1 ratio. Once safety was confirmed for these 2 sentinel participants over a 48-hour observation period, the remaining 6 participants in the same cohort were randomized 5:1 to receive JNT-517 or placebo. Both JNT-517 and placebo were administered as an on-site compounded suspension.
In both SAD and MAD studies, safety and tolerability were assessed by AE monitoring, clinical laboratory tests (blood chemistries, hematology, coagulation, serology, and urinalysis), vital signs, 12-lead electrocardiograms, and physical examinations. Safety assessment and corresponding samples were collected on day-1 prior to dosing and days 1, 2, 3, and 8 for the SAD study or throughout the 14 days of dosing and day 21 for the MAD study.

With NC(=O)N1CCC[C@@H](N(C(=O)NCc2ccc(OC(F)(F)F)cc2F)C2CC2)C1 [JNT-517] the “SLC7A5 transport (Fig S2 curve point)” value ([1]; 0.0160037 uM) was 105 and 96.7, the “SLC7A5 transport (Fig S2 curve point)” value ([1]; 0.048011 uM) was 106 and 104 and the “SLC7A5 transport (Fig S2 curve point)” value ([1]; 0.144033 uM) was 99.2 and 100. For the same compound, the “SLC7A5 transport (Fig S2 curve point)” value ([1]; 0.432099 uM) was 95.2 and 94.5, the “SLC7A5 transport (Fig S2 curve point)” value ([1]; 1.2963 uM) was 99.2 and 103 and the “SLC7A5 transport (Fig S2 curve point)” value ([1]; 3.88889 uM) was 101 and 96.2. The “SLC7A5 transport (Fig S2 curve point)” value ([1]; 11.6667 uM) was 108 and 105, the “SLC7A5 transport (Fig S2 curve point)” value ([1]; 35 uM) was 133 and 120 and the “inhibition of SLC7A5” value ([1]; concentrations up to 35 μM) was “did not inhibit”. The “AEs leading to IP discontinuation” value (healthy volunteers; SAD 10 mg) was 0 Number (%), the “Any CTCAE Grade ≥ 3” value (healthy volunteers; SAD 10 mg) was 0 Number (%) and the “Any TEAE” value (healthy volunteers; SAD 10 mg) was 2 (33.3) Number (%). The Death (healthy volunteers; SAD 10 mg) was 0 Number (%), the SAE (healthy volunteers; SAD 10 mg) was 0 Number (%) and the “TEAE Alanine aminotransferase increased” value (healthy volunteers; SAD 10 mg) was 0 Number (%). The “TEAE Aspartate aminotransferase increased” value (healthy volunteers; SAD 10 mg) was 0 Number (%), the “TEAE Blood creatine phosphokinase increased” value (healthy volunteers; SAD 10 mg) was 0 Number (%) and the “TEAE Catheter site pain” value (healthy volunteers; SAD 10 mg) was 1 (16.7) Number (%). For the same compound, the “TEAE Dizziness” value (healthy volunteers; SAD 10 mg) was 1 (16.7) Number (%), the “TEAE Headache” value (healthy volunteers; SAD 10 mg) was 1 (16.7) Number (%) and the “TEAE Hematuria” value (healthy volunteers; SAD 10 mg) was 0 Number (%). The “TEAE Nausea” value (healthy volunteers; SAD 10 mg) was 1 (16.7) Number (%), the “TEAE Pyrexia” value (healthy volunteers; SAD 10 mg) was 0 Number (%) and the “TEAE Syncope” value (healthy volunteers; SAD 10 mg) was 0 Number (%). The “TEAE Upper respiratory tract infection” value (healthy volunteers; SAD 10 mg) was 0 Number (%), the “TEAE Urinary tract infection” value (healthy volunteers; SAD 10 mg) was 0 Number (%) and the “AEs leading to IP discontinuation” value (healthy volunteers; SAD 25 mg) was 0 Number (%). For the same compound, the “Any CTCAE Grade ≥ 3” value (healthy volunteers; SAD 25 mg) was 1 (16.7) Number (%), the “Any TEAE” value (healthy volunteers; SAD 25 mg) was 2 (33.3) Number (%) and the Death (healthy volunteers; SAD 25 mg) was 0 Number (%). For the same compound, the SAE (healthy volunteers; SAD 25 mg) was 0 Number (%), the “TEAE Alanine aminotransferase increased” value (healthy volunteers; SAD 25 mg) was 1 (16.7) Number (%) and the “TEAE Aspartate aminotransferase increased” value (healthy volunteers; SAD 25 mg) was 1 (16.7) Number (%). For the same compound, the “TEAE Blood creatine phosphokinase increased” value (healthy volunteers; SAD 25 mg) was 1 (16.7) Number (%), the “TEAE Catheter site pain” value (healthy volunteers; SAD 25 mg) was 0 Number (%) and the “TEAE Dizziness” value (healthy volunteers; SAD 25 mg) was 0 Number (%). The “TEAE Headache” value (healthy volunteers; SAD 25 mg) was 0 Number (%), the “TEAE Hematuria” value (healthy volunteers; SAD 25 mg) was 1 (16.7) Number (%) and the “TEAE Nausea” value (healthy volunteers; SAD 25 mg) was 0 Number (%). For the same compound, the “TEAE Pyrexia” value (healthy volunteers; SAD 25 mg) was 0 Number (%), the “TEAE Syncope” value (healthy volunteers; SAD 25 mg) was 0 Number (%) and the “TEAE Upper respiratory tract infection” value (healthy volunteers; SAD 25 mg) was 0 Number (%). For the same compound, the “TEAE Urinary tract infection” value (healthy volunteers; SAD 25 mg) was 0 Number (%), the “AEs leading to IP discontinuation” value (healthy volunteers; SAD 50 mg) was 0 Number (%) and the “Any CTCAE Grade ≥ 3” value (healthy volunteers; SAD 50 mg) was 1 (16.7) Number (%). The “Any TEAE” value (healthy volunteers; SAD 50 mg) was 2 (33.3) Number (%), the Death (healthy volunteers; SAD 50 mg) was 0 Number (%) and the SAE (healthy volunteers; SAD 50 mg) was 0 Number (%). The “TEAE Alanine aminotransferase increased” value (healthy volunteers; SAD 50 mg) was 0 Number (%), the “TEAE Aspartate aminotransferase increased” value (healthy volunteers; SAD 50 mg) was 0 Number (%) and the “TEAE Blood creatine phosphokinase increased” value (healthy volunteers; SAD 50 mg) was 0 Number (%). The “TEAE Catheter site pain” value (healthy volunteers; SAD 50 mg) was 0 Number (%), the “TEAE Dizziness” value (healthy volunteers; SAD 50 mg) was 0 Number (%) and the “TEAE Headache” value (healthy volunteers; SAD 50 mg) was 1 (16.7) Number (%). For the same compound, the “TEAE Hematuria” value (healthy volunteers; SAD 50 mg) was 0 Number (%), the “TEAE Nausea” value (healthy volunteers; SAD 50 mg) was 0 Number (%) and the “TEAE Pyrexia” value (healthy volunteers; SAD 50 mg) was 0 Number (%). The “TEAE Syncope” value (healthy volunteers; SAD 50 mg) was 1 (16.7) Number (%), the “TEAE Upper respiratory tract infection” value (healthy volunteers; SAD 50 mg) was 1 (16.7) Number (%) and the “TEAE Urinary tract infection” value (healthy volunteers; SAD 50 mg) was 0 Number (%). For the same compound, the “AEs leading to IP discontinuation” value (healthy volunteers; SAD 100 mg) was 0 Number (%), the “Any CTCAE Grade ≥ 3” value (healthy volunteers; SAD 100 mg) was 0 Number (%) and the “Any TEAE” value (healthy volunteers; SAD 100 mg) was 0 Number (%). For the same compound, the Death (healthy volunteers; SAD 100 mg) was 0 Number (%), the SAE (healthy volunteers; SAD 100 mg) was 0 Number (%) and the “TEAE Alanine aminotransferase increased” value (healthy volunteers; SAD 100 mg) was 0 Number (%). The “TEAE Aspartate aminotransferase increased” value (healthy volunteers; SAD 100 mg) was 0 Number (%), the “TEAE Blood creatine phosphokinase increased” value (healthy volunteers; SAD 100 mg) was 0 Number (%) and the “TEAE Catheter site pain” value (healthy volunteers; SAD 100 mg) was 0 Number (%). For the same compound, the “TEAE Dizziness” value (healthy volunteers; SAD 100 mg) was 0 Number (%), the “TEAE Headache” value (healthy volunteers; SAD 100 mg) was 0 Number (%) and the “TEAE Hematuria” value (healthy volunteers; SAD 100 mg) was 0 Number (%). For the same compound, the “TEAE Nausea” value (healthy volunteers; SAD 100 mg) was 0 Number (%), the “TEAE Pyrexia” value (healthy volunteers; SAD 100 mg) was 0 Number (%) and the “TEAE Syncope” value (healthy volunteers; SAD 100 mg) was 0 Number (%). The “TEAE Upper respiratory tract infection” value (healthy volunteers; SAD 100 mg) was 0 Number (%), the “TEAE Urinary tract infection” value (healthy volunteers; SAD 100 mg) was 0 Number (%) and the “AEs leading to IP discontinuation” value (healthy volunteers; SAD 170 mg) was 0 Number (%). The “Any CTCAE Grade ≥ 3” value (healthy volunteers; SAD 170 mg) was 0 Number (%), the “Any TEAE” value (healthy volunteers; SAD 170 mg) was 1 (16.7) Number (%) and the Death (healthy volunteers; SAD 170 mg) was 0 Number (%). The SAE (healthy volunteers; SAD 170 mg) was 0 Number (%), the “TEAE Alanine aminotransferase increased” value (healthy volunteers; SAD 170 mg) was 0 Number (%) and the “TEAE Aspartate aminotransferase increased” value (healthy volunteers; SAD 170 mg) was 0 Number (%). The “TEAE Blood creatine phosphokinase increased” value (healthy volunteers; SAD 170 mg) was 0 Number (%), the “TEAE Catheter site pain” value (healthy volunteers; SAD 170 mg) was 0 Number (%) and the “TEAE Dizziness” value (healthy volunteers; SAD 170 mg) was 0 Number (%). The “TEAE Headache” value (healthy volunteers; SAD 170 mg) was 0 Number (%), the “TEAE Hematuria” value (healthy volunteers; SAD 170 mg) was 0 Number (%) and the “TEAE Nausea” value (healthy volunteers; SAD 170 mg) was 0 Number (%). For the same compound, the “TEAE Pyrexia” value (healthy volunteers; SAD 170 mg) was 1 (16.7) Number (%), the “TEAE Syncope” value (healthy volunteers; SAD 170 mg) was 0 Number (%) and the “TEAE Upper respiratory tract infection” value (healthy volunteers; SAD 170 mg) was 0 Number (%). The “TEAE Urinary tract infection” value (healthy volunteers; SAD 170 mg) was 1 (16.7) Number (%), the “incidence of adverse events (AE)” value (healthy volunteers; SAD cohorts, all JNT-517 doses (7 of 30)) was 23.3% and the safety and tolerability (healthy volunteers; healthy participants, SAD 10–170 mg and MAD 14 days) was “safe and well tolerated”.
